A short description of data set [1]: Liver microsomal stability assay (NADPH), human. The format is in vitro ADME. The conditions noted are these: for % compound remaining at last time-point, LM_NADPH: human liver microsomes, 4.6 μM, 60 min; for half-life at 4.6 μM: male, pH 7.5, human liver microsomes, read-out: LM_NADPH t1/2. How it is done: Pooled CD1 mouse (M1000, male), IGS Sprague-Dawley rat (R1000, male), and human (H1000, male) liver microsomes were purchased from SEKISUI XenoTech. 10 mM DMSO stock solution of the test compound (39 or 50) was preincubated at 37 °C for 15 min with mouse, rat, or human liver microsomes in 0.1 M Tris-HCl buffer (pH 7.5) with 10% DMSO. The final concentration was 4.6 μM. After preincubation, the cofactor (NADPH) was added to the incubation mixture, and the incubation was continued at 37 °C for 1 h. At each time point (0, 5, 15, 30, and 60 min), 30 μL of incubation mixture was diluted with 200 μL cold CH3CN spiked with 200 nM of an appropriate internal standard, followed by centrifugation at 3.270g for 15 min. The supernatant was further diluted with H2O (1:1) for analysis. A reference incubation mixture of each specie (microsomes without cofactors) was prepared for each test compound and analyzed at t = 0 and 60 min in order to verify the compound stability in the matrix. The two time points were diluted as for the time points of the incubation mixture above. The supernatants were analyzed by LC–MS/MS on a Waters ACQUITY UPLC-MS TQD system consisting of a triple quadrupole detector (TQD) mass spectrometer equipped with an electrospray ionization interface and a photodiode array eλ detector (PDA) from Waters Inc. (Milford, MA, USA). Electrospray ionization was applied in positive mode. Compound-dependent parameters as MRM transitions and collision energy were developed for each compound. The analyses were run on an ACQUITY UPLC BEH C18 (50 × 2.1 mm ID, particle size 1.7 μm) with a VanGuard BEH C18 precolumn (5 × 2.1 mm ID, particle size 1.7 μm) at 40 °C, using H2O + 0.1% HCOOH (A) and CH3CN + 0.1% HCOOH (B) as the mobile phase. The percentage of test compound remaining at each time point relative to t = 0 was calculated by the response factor on the basis of the internal standard peak area. The percentage of test compound versus time was plotted and fitted by GraphPad Prism (GraphPad Software, Version 5 for Windows, CA, USA, www.graphpad.com) to estimate the compound’s half-life (t1/2), which was reported as mean value along with the standard deviation (n = 3).

The nature of data set [2]: Mouse pharmacokinetics, i.v. and p.o. In kind it is in vivo. The following applies: plasma, male C57BL/6 mice; for AUC at 4 h / Cmax at 4 h / Tmax at 4 h / Vd at 4 h / clearance at 4 h / bioavailability at 4 h: iv; for AUC at 4 h / Cmax at 4 h / Tmax at 4 h / Vd at 4 h / clearance at 4 h: i.v. 3 mg/kg; for AUC at 8 h / Cmax at 8 h / Tmax at 8 h: po, p.o. 10 mg/kg. How it is done:
Male C57BL/6 mice, weighing 22–24 g, were used (Charles River). All procedures were performed in accordance with the Ethical Guidelines of European Communities Council (Directive 2010/63/EU of 22 September 2010) and accepted by the Italian Ministry of Health. All efforts were made to minimize animal suffering and to use the minimal number of animals required to produce reliable results, according to the “3Rs concept”. Animals were group-housed in ventilated cages and had free access to food and water. They were maintained under a 12 h light/dark cycle (lights on at 8:00 am) at controlled temperature (21 ± 1 °C) and relative humidity (55 ± 10%).
Compound 39 or 50 was administered p.o. and i.v. to C57BL/6 male mice at 10 and 3 mg/kg. The vehicle used was PEG400/Tween 80/saline solution at 10/10/80% in volume, respectively. Three animals per each time point were treated. Blood samples at 0, 15, 30, 60, 120, 240, and 480 min after administration were collected for the p.o. arm. Blood samples at 0, 5, 15, 30, 60, 120, and 240 min after administration were collected for the i.v. arm. Plasma was separated from blood by centrifugation for 15 min at 1500 rpm a 4 °C, transferred to Eppendorf tubes, and frozen (−80 °C). Control animals treated with vehicle only were also included in the experimental protocol.
Plasma samples were centrifuged at 21,100g for 15 min at 4 °C. An aliquot of each sample was extracted (1:3) with cold CH3CN containing 200 nM of an appropriate internal standard as a close analogue of the parent compound (for compound 39: (1R,3r,5S)-3-(4-phenylphenoxy)-8-((3,5-dimethyl-1H-pyrazol-4-yl)sulfonyl)-8 azabicyclo[3.2.1]octane; for compound 50: (1R,3r,5S)-3-((5-methylpyrazin-2-yl)oxy)-8-((3,5-dimethyl-1H-pyrazol-4-yl)sulfonyl)-8-azabicyclo[3.2.1]octane). A calibration curve was obtained in blank mouse plasma over a 1 nM to 10 μM range. Three quality controls were prepared by spiking the parent compound in blank mouse plasma to 20, 200, and 2.000 nM, as final concentrations. The calibrators and quality controls were extracted (1:3) with the same extraction solution as the plasma sample. The plasma samples, the calibrators, and quality controls were centrifuged at 3.270g for 15 min at 4 °C. The supernatants were further diluted (1:1) with H2O + 0.1% HCOOH, and analyzed by LC–MS/MS on a Waters ACQUITY UPLC-MS TQD system consisting of a Triple Quadrupole Detector (TQD) Mass Spectrometer equipped with an Electrospray Ionization interface and a Photodiode Array eλ Detector from Waters Inc. (Milford, MA, USA). Electrospray ionization was applied in positive mode. Compound-dependent parameters such as MRM transitions and collision energy were developed for the parent compound and the internal standard. The analyses were run on an ACQUITY UPLC BEH C18 (50 × 2.1 mm ID, particle size 1.7 μm) with a VanGuard BEH C18 precolumn (5 × 2.1 mm ID, particle size 1.7 μm) at 40 °C. The mobile phase was H2O + 0.1% HCOOH (A) and CH3CN + 0.1% HCOOH (B) at a flow rate = 0.5 mL/min. A linear gradient was applied starting at 10% B with an initial hold for 0.2 min, then 10–100% B in 2 min. All samples (plasma samples, calibrators, and quality controls) were quantified by the MRM peak area response factor in order to determine the levels of the parent compound in plasma. The concentrations versus time were plotted and the profiles were fitted using PK Solutions Excel Application (Summit Research Service, USA) in order to determine the pharmacokinetic parameters.

The mark [3] stands for this setting: p.o. 10 mg/kg vs i.v. 3 mg/kg, read-out: F (oral bioavailability).

On to `CCCCc1ccc(O[C@H]2C[C@H]3CC[C@@H](C2)N3S(=O)(=O)c2c(C)n[nH]c2C)cc1` [Compound 39, (1R,3r,5S)-3-(4-Butylphenoxy)-8-((3,5-dimethyl-1H-pyrazol-4-yl)sulfonyl)-8-azabicyclo[3.2.1]octane], for which, in data set [1], the “% compound remaining at last time-point, LM_NADPH” value is listed as 83% and the half-life at 4.6 μM was above 60 min. In data set [2], the exposure (AUC) at 4 h is 347 ng·h/mL, the highest level (Cmax at 4 h) was 702 ng/mL, the time to peak (Tmax) at 4 h was 5 min and the Vd at 4 h was determined as 4.45 L/kg. In data set [2], the clearance at 4 h stood at 144 mL/min/kg, the AUC at 8 h was 346 ng·h/mL, the peak level (Cmax at 8 h) was 297 ng/mL and the Tmax at 8 h was 30 min. Besides, in data set [2] (setting [3]), the bioavailability at 4 h came out at 30%.
For the compound `CCOCc1cnc(O[C@H]2C[C@H]3CC[C@@H](C2)N3S(=O)(=O)c2c(C)n[nH]c2C)cn1` [Compound 50, (1R,3r,5S)-8-((3,5-Dimethyl-1H-pyrazol-4-yl)sulfonyl)-3-((5-(ethoxymethyl)pyrazin-2-yl)oxy)-8-azabicyclo[3.2.1]octane], in data set [1], the “% compound remaining at last time-point, LM_NADPH” value was determined as 88% and the half-life at 4.6 μM was above 60 min. Further, in data set [2], the AUC at 4 h was 3370 ng·h/mL, the highest concentration (Cmax) at 4 h amounted to 5240 ng/mL, the time to peak (Tmax) at 4 h was 5 min and the Vd at 4 h amounted to 0.53 L/kg. Moreover, in data set [2], the clearance at 4 h was 13 mL/min/kg, the AUC at 8 h is 6790 ng·h/mL, the highest concentration (Cmax) at 8 h turned out to be 6870 ng/mL and the Tmax at 8 h is 15 min. For the same compound, in data set [2] (setting [3]), the bioavailability at 4 h came to 60%. Further, the bioavailability in data set [2] (oral, p.o. 10 mg/kg vs i.v. 3 mg/kg, read-out: F (oral bioavailability)) was around 60%.
